From US20040106658A1, “Heterocyclic fluoroalkenyl thioethers and the use thereof as pesticides(III)” (priority 2000, published 2004)
Read-outs that look alike come from different tables or passages of the source.

Key:
[1] = logP by HPLC (EEC Directive 79/831 Annex V.A8, gradient method); type: physicochemical; details: for chromatographic logP: pH 2.3; for logP (pH 2): HPLC, acetonitrile/0.1% aqueous phosphoric acid
[2] = tested on: Boophilus microplus (SP-resistant Parkhurst strain); test: Test with Boophilus microplus resistant (SP-resistant Parkhurst strain), injection; type: in vivo; details: injected, checked after 7 days; for activity (no oviposition of fertile eggs): 0.16 μg active compound per animal; for kill (activity: no oviposition of fertile eggs): 0.8 μg active compound per animal
Protocol: Test With Boophilus Microplus Resistant (SP-Resistant Parkhurst Strain)
20 mg of active compound are dissolved in 1 ml of dimethyl sulphoxide, more dilute concentrations are prepared by dilution in the same solvent.
The test is carried out in 5 replications. 1 μl of the solutions is injected into the abdomen, and the animals are transferred into dishes and kept in a climatized room. After 7 days, the activity is checked by examination for oviposition of fertile eggs. Eggs whose fertility is not visible from the outside are stored in glass tubes in a controlled-environment cabinet until the larvae have hatched. An activity of 100% means that no tick has produced any fertile eggs.

[3] = tested on: Meloidogyne incognita; test: Meloidogyne test (gall formation on lettuce roots); type: in vivo; details: 20 ppm active compound, after 14 days
Protocol: To produce a suitable preparation of active compound, 1 part by weight of active compound is mixed with the stated amounts of solvent and emulsifier, and the concentrate is diluted with water to the desired concentration.
Containers are filled with sand, solution of active compound, Meloidogyne incognita egg/larvae suspension and lettuce seeds. The lettuce seeds germinate and the plants develop. On the roots, galls are formed.
After the desired period of time, the nematicidal action is determined in % using gall formation as a measure. 100% means that no galls were found; 0% means that the number of galls on the treated plants corresponds to that of the untreated control.

[4] = tested on: Ctenocephalides felis, strain "Georgi"; test: Test with cat fleas/oral uptake; type: in vivo; details: 100 ppm in citrated cattle blood, after 28 h
Protocol: Test With Cat Fleas/Oral Uptake
To produce a suitable formulation, a suitable solution of active compound is prepared from 20 mg of active compound and 1 ml of DMSO. 15 μl of this formulation are added to 3 ml of citrated cattle blood and stirred.
10 unfed adult fleas (Ctenocephalides felis, strain “Georgi”) are placed into a chamber (Ø3.2 cm) whose top and bottom are closed with gauze. A metal cylinder whose underside is covered with parafilm is placed onto the chamber. The cylinder contains 3 ml of blood/active compound formulation which can be taken up by the fleas through the parafilm membrane. Whereas the blood is warmed to 37° C., the temperature in the area of the flea chambers is adjusted to 25° C. Controls are mixed with the same volume of DMSO, without addition of a compound. The determinations are carried out in triplicate.
After 28 h, the mortality in % (=dead fleas) is determined.
Compounds which effect an at least 25% kill of the fleas within 28 h are judged to be effective.

[5] = tested on: greenhouse red spider mite (Tetranychus urticae); test: Tetranychus test (OP-resistant/dip treatment); type: in vivo; details: active compound concentration 0.1%, after 7 days
Protocol: Tetranychus Test (OP-Resistant/Dip Treatment)
(§1) To produce a suitable preparation of active compound, 1 part by weight of active compound is mixed with the stated amounts of solvent and emulsifier, and the concentrate is diluted with emulsifier-containing water to the desired concentration.
Bean plants (Phaseolus vulgaris) which are heavily infested by all stages of the greenhouse red spider mite (Tetranychus urticae) are dipped into a preparation of active compound of the desired concentration.
After the desired period of time, the effect in % is determined. 100% means that all spider mites have been killed; 0% means that none of the spider mites have been killed.

[6] = tested on: larvae of the mustard beetle (Phaedon cochleariae); test: Phaedon larvae test (cabbage leaf dip); type: in vivo; details: active compound concentration 0.1%, after 7 days
Protocol: as §1
After the desired period of time, the kill in % is determined. 100% means that all beetle larvae have been killed; 0% means that none of the beetle larvae have been killed.

[7] = tested on: peach aphid (Myzus persicae); test: Myzus test (cabbage leaf dip); type: in vivo; details: active compound concentration 0.1%, after 6 days
Protocol: as §1
Cabbage leaves (Brassica oleracea) which are heavily infested by the peach aphid (Myzus persicae) are treated by being dipped into the preparation of active compound of the desired concentration.
After the desired period of time, the kill in % is determined. 100% means that all aphids have been killed; 0% means that none of the aphids have been killed.

[8] = tested on: Lucilia cuprina larvae; test: Blowfly larvae test (development-inhibitory action); type: in vivo; details: 100 ppm active compound
Protocol: Blowfly Larvae Test (Development-Inhibitory Action)
20 mg of active compound are dissolved in 1 ml of dimethyl sulphoxide, more dilute concentrations are prepared by dilution with distilled water.
About 20 Lucilia cuprina larvae are introduced into a test tube which contains about 1 cm^3 of horse meat and 0.5 ml of the preparation of active compound to be tested. After 24 hours and 48 hours, the efficacy of the preparation of active compound is determined. The test tubes are transferred into a beaker whose bottom is covered with sand. After a further 2 days, the test tubes are removed and the pupae are counted.
The efficacy of the preparation of active compound is assessed by the number of flies that have hatched after 1.5 times the period of development of an untreated control. 100% means that no flies have hatched; 0% means that all flies have hatched normally.

Row | Compound | activity (no oviposition of fertile eggs) [2] | nematicidal action (activity, gall formation as a measure) [3] | logP (pH 2) [1] | further results
1 | FC(F)=C(F)CCCCSc1nc(-c2ccccc2)cs1 [Example 1, 4-phenyl-2-(6,6,5-trifluorohex-5-enylthio)-1,3-thiazole] | 100% | 100% |  | chromatographic logP ([1]; read-out: logP (pH 2.3)): 5.21
2 | [O-][S+](CCCCC(F)=C(F)F)c1nc(-c2ccccc2)cs1 (stereo not shown) [Example 2, 4-phenyl-2-(6,6,5-trifluorohex-5-enylsulphinyl)-1,3-thiazole] | 100% |  |  | chromatographic logP ([1]; read-out: logP (pH 2.3)): 3.47
3 | O=S(=O)(CCCCC(F)=C(F)F)c1nc(-c2ccccc2)cs1 [Example 3, 4-phenyl-2-(6,6,5-trifluorohex-5-enylsulphonyl)-1,3-thiazole] | 100% |  |  | chromatographic logP [1]: 3.67
4 | FC(F)=CCCCCSc1nc(-c2ccccc2)cs1 [Example 4] | 100% | 100% | 5.38 | kill (activity: no oviposition of fertile eggs) [2]: 100%; kill (mortality) [4]: 100%; kill [5]: 98%
5 | FC(F)=C(F)CCCCSc1nc(Cl)c(Cl)s1 [Example 5] |  | 98% | 5.33 | kill (activity: no oviposition of fertile eggs) [2]: 100%; kill [6]: 100%
6 | FC(F)=CCCCCSc1nc(Cl)c(Cl)s1 [Example 6] |  | 100% | 5.53 | kill [7]: 95%; kill [5]: 100%; kill [6]: 100%
7 | FC(F)=C(F)CCCCSc1nc(-c2ccccc2)c(-c2ccccc2)o1 [Example 7] |  | 100% | 5.96 | 
8 | FC(F)=CCCCCSc1nc(-c2ccccc2)c(-c2ccccc2)o1 [Example 8] |  | 100% | 6.14 | kill (efficacy: flies not hatched) [8]: 100%; kill (activity: no oviposition of fertile eggs) [2]: 100%; kill [5]: 98%; kill [6]: 100%
9 | Cc1csc(SCCCCC(F)=C(F)F)n1 [Example 9] |  |  | 3.85 | 
10 | FC(F)=C(F)CCCCSc1nc(Cl)c(C(F)(F)F)s1 [Example 10] |  |  | 5.40 | 
11 | Cc1nc(SCCCCC(F)=C(F)F)sc1C [Example 11] |  |  | 4.20 | 
12 | FC(F)=CCCCCSc1nc(Cl)c(C(F)(F)F)s1 [Example 12] |  |  | 5.62 | 
